Results published in patent US20230295201A1 (Gilead Sciences, Inc., priority 2020, published 2023).
Like-named read-outs stand apart in the source and are kept apart here.

Experiments:
Type in all cases: cell-based
HRV1a = assay: HRV1A HELA EC50 (cytopathic effect in H1-HeLa cells); settings: 96 h, read-out: HRV1A HELA EC50
Protocol: (§1) H1-HeLa cells, cultured in complete RPMI 1640 medium containing 10% heat-inactivated FBS and 1% Penicillin/Streptomycin, were seeded in 96 well plates at 5000 cells/well one day prior to compound dosing and infection. The antiviral activity of each compound was measured in triplicate. Compounds were added directly to the cell cultures in serial 3-fold dilutions using the HP300 digital dispenser (Hewlett Packard, Palo Alto, CA) immediately prior to infection. The plates were transferred to BSL-2 containment and 100 μL of 1/4000 dilution of HRV1a virus stock was added to each well containing cells and serially diluted compounds. Each plate included 6 wells of infected untreated cells and 6 wells of cells containing 5 μM Rupintrivir that served as 0% and 100% virus inhibition control, respectively. Following the infection, test plates were incubated for 96 h in a tissue culture incubator set to 37° C./5% CO2. Following incubation, the H1-HeLa cells were removed from incubation and allowed to equilibrate to 25° C. Cell viability was determined by removing 100 μL of culture medium and adding 100 μL of Cell-Titer Glo viability reagent. The mixtures were incubated on a shaker for 10 minutes at 25° C., and the luminescence signal was quantified on an Envision luminescence plate reader.

HRV10 = HRV10 HELA EC50
HRV14 = HRV14 HELA EC50 (cytopathic effect in H1-HeLa cells); settings: 96 h, read-out: HRV14 HELA EC50
Protocol: as §1, with “HRV14” for “HRV1a”

HRV99 = HRV99 EC50
HRVc25 replicon = assay: HRVc25 EC50 (replicon luciferase in H1-HeLa cells); settings: 48 hrs
Protocol: (§2) First, HRV replicon RNA is prepared. 5 ug of DNA Template (HRVc15 or HRVc25) is linearized with 2 μL of MluI enzyme in NEB buffer-3 in a final volume of 25 μL for 3 hours at 37° C. Following incubation, linearized DNA is purified on a PCR purification column and the following in vitro transcription is performed using the following conditions: 10 μL of RiboMAX Express T7 2× buffer, 1-8 μL of linear DNA template (1 μg), 0-7 μL nuclease free water, 2 μL enzyme mix T7 express. The final volume of 20 μL is mixed and incubated at 37° C. for 30 min. Following incubation, 1 μL of RQ1 RNase free DNase is added and the mixture is incubated at 37° C. for 15 min. The resulting RNA is then purified with the MegaClear Kit (Gibco Life Technologies cat #11835-030) and is eluted two times with 50 μL of elution buffer at 95° C. […] Replicon activity is then measured by a Renilla-Glo Luciferase Assay system. Prior to signal quantification, plates are removed from incubators and are allowed to equilibrate to 25° C. after 50 uL is removed from each well. […] Plates are then incubated for 20 min at 25° C. under gentle agitation and luciferase signal are determined with a 0.1 second detection setting using an EnVision luciferase quantification reader.

HRVc15 replicon = assay: HRVc15 EC50 (replicon luciferase in H1-HeLa cells); settings: 48 hrs
Protocol: as §2

SMILES	EC50 (HRV1a) [nM]	EC50 (HRV10) [nM]	EC50 (HRV14) [nM]	EC50 (HRV99) [nM]	EC50 (HRVc25 replicon) [nM]	EC50 (HRVc15 replicon) [nM]	EC50 (HRV1a; H1-HeLa cells) [nM]	EC50 (HRV14; H1-HeLa cells) [nM]
C[C@H](NP(=O)(OC[C@@]1(C#N)O[C@@H](c2ccc3c(N)ncnn23)[C@H](O)[C@@H]1O)Oc1ccccc1)C(=O)OCC1CC1 (mixture of isomers) [Example 8, (2S)-cyclopropylmethyl 2-(((((2R,3S,4R,5S)-5-(4-aminopyrrolo[2,1-f][1,2,4]triazin-7-yl)-2-cyano-3,4-dihydroxytetrahydrofuran-2-yl)methoxy)(phenoxy)phosphoryl)amino)propanoate]	211	179	615	1340				
CC(C)OC(=O)[C@H](C)NP(=O)(OC[C@@]1(C#N)O[C@@H](c2ccc3c(N)ncnn23)[C@H](O)[C@@H]1O)Oc1ccccc1 (mixture of isomers) [Example 77, Isopropyl ((((2R,3S,4R,5S)-5-(4-aminopyrrolo[2,1-f][1,2,4]triazin-7-yl)-2-cyano-3,4-dihydroxytetrahydrofuran-2-yl)methoxy)(phenoxy)phosphoryl)-L-alaninate]	736	636	1810	4940				
CCC(CC)COC(=O)[C@H](CC)NP(=O)(OC[C@@]1(C#N)O[C@@H](c2ccc3c(N)ncnn23)[C@H](O)[C@@H]1O)Oc1ccccc1 (mixture of isomers) [Example 88, (2S)-2-ethylbutyl 2-(((((2R,3S,4R,5S)-5-(4-aminopyrrolo[2,1-f][1,2,4]triazin-7-yl)-2-cyano-3,4-dihydroxytetrahydrofuran-2-yl)methoxy)(phenoxy)phosphoryl)amino)butanoate]	581	608	1690	4540				
CC[C@H](NP(=O)(OC[C@@]1(C#N)O[C@@H](c2ccc3c(N)ncnn23)[C@H](O)[C@@H]1O)Oc1ccccc1)C(=O)OC1CCCCC1 (mixture of isomers) [Example 103, (2S)-cyclohexyl 2-(((((2R,3S,4R,5S)-5-(4-aminopyrrolo[2,1-f][1,2,4]triazin-7-yl)-2-cyano-3,4-dihydroxytetrahydrofuran-2-yl)methoxy)(phenoxy)phosphoryl)amino)butanoate]	1020	916	2550	4740				
C[C@H](N[P@](=O)(OC[C@@]1(C#N)O[C@@H](c2ccc3c(N)ncnn23)[C@H](O)[C@@H]1O)Oc1ccccc1)C(=O)OC1CCCCC1 (single isomer, unassigned) [Example 6]					7	9		
C[C@H](NP(=O)(OC[C@@]1(C#N)O[C@@H](c2ccc3c(N)ncnn23)[C@H](O)[C@@H]1O)Oc1ccccc1)C(=O)OC1CCCCC1 (stereo partly drawn) [Example 4, (2S)-cyclohexyl 2-(((((2R,3S,4R,5S)-5-(4-aminopyrrolo[2,1-f][1,2,4]triazin-7-yl)-2-cyano-3,4-dihydroxytetrahydrofuran-2-yl)methoxy)(phenoxy)phosphoryl)amino)propanoate]	190	144	445	1090				
CCC(CC)COC(=O)[C@@H](C)NP(=O)(OC[C@@]1(C#N)O[C@@H](c2ccc3c(N)ncnn23)[C@H](O)[C@@H]1O)Oc1ccccc1 (stereo partly drawn) [Example 82, (2R)-2-ethylbutyl 2-(((((2R,3S,4R,5S)-5-(4-aminopyrrolo[2,1-f][1,2,4]triazin-7-yl)-2-cyano-3,4-dihydroxytetrahydrofuran-2-yl)methoxy)(phenoxy)phosphoryl)amino)propanoate]	2780	2680	9190	19300				
C[C@H](NP(=O)(OC[C@@]1(C#N)O[C@@H](c2ccc3c(N)ncnn23)[C@H](O)[C@@H]1O)Oc1ccccc1)C(=O)OCC(C)(C)C (stereo partly drawn) [Example 92, (2S)-neopentyl 2-(((((2R,3S,4R,5S)-5-(4-aminopyrrolo[2,1-f][1,2,4]triazin-7-yl)-2-cyano-3,4-dihydroxytetrahydrofuran-2-yl)methoxy)(phenoxy)phosphoryl)amino)propanoate]	97	81	242	639				
CCCCCCCCCCCCCCCCCCOC[C@H](COP(=O)(O)OC[C@@]1(C#N)O[C@@H](c2ccc3c(N)ncnn23)[C@H](O)[C@@H]1O)OCc1ccccc1 [Example 96, ((2R,3S,4R,5S)-5-(4-aminopyrrolo[2,1-f][1,2,4]triazin-7-yl)-2-cyano-3,4-dihydroxytetrahydrofuran-2-yl)methyl ((R)-2-(benzyloxy)-3-(octadecyloxy)propyl) hydrogen phosphate]		2320		63900			1580	12000
CCC(CC)OC(=O)[C@H](C)NP(=O)(OC[C@@]1(C#N)O[C@@H](c2ccc3c(N)ncnn23)[C@H](O)[C@@H]1O)Oc1ccccc1 (stereo partly drawn) [Example 101, (2S)-pentan-3-yl 2-(((((2R,3S,4R,5S)-5-(4-aminopyrrolo[2,1-f][1,2,4]triazin-7-yl)-2-cyano-3,4-dihydroxytetrahydrofuran-2-yl)methoxy)(phenoxy)phosphoryl)amino)propanoate]	1630	1310	3430	7340				
